Paper PMC7951137 (ACS chemical neuroscience, 2021)
Like-named read-outs stand apart in the source and are kept apart here. Values belong to the molecule of their own block, whether it stands above or below them.

Key:
D189N hMC4R [1] = target: T1, D189N hMC4R (Homo sapiens, UniProt P32245, D189N); test: cAMP AlphaScreen antagonist assay; assay type: cell-based
D189E hMC4R = D189E hMC4R (Homo sapiens, UniProt P32245, D189E); test: cAMP AlphaScreen agonist / inverse agonist assay; assay type: cell-based; conditions: for Inverse agonist percent decrease from basal activity: D189E hMC4R
D189K hMC4R [2] = target: T2, D189K hMC4R (Homo sapiens, UniProt P32245, D189K); test: cAMP AlphaScreen antagonist assay; assay type: cell-based
wildtype hMC4R [3] = target: T3, wildtype hMC4R (Homo sapiens, UniProt P32245); test: cAMP AlphaScreen agonist / inverse agonist assay; assay type: cell-based; conditions: WT hMC4R, basal = signal at 10^−12 M
D189S hMC4R [4] = target: T4, D189S hMC4R (Homo sapiens, UniProt P32245, D189S); test: cAMP AlphaScreen agonist / inverse agonist assay; assay type: cell-based; conditions: D189S hMC4R
D189Q hMC4R [5] = target: T5, D189Q hMC4R (Homo sapiens, UniProt P32245, D189Q); test: cAMP AlphaScreen antagonist assay; assay type: cell-based
D189Q hMC4R [6] = target: T5, D189Q hMC4R; test: cAMP AlphaScreen agonist / inverse agonist assay; assay type: cell-based; conditions: for Inverse agonist percent decrease from basal activity: D189Q hMC4R
D189A hMC4R [7] = target: T6, D189A hMC4R (Homo sapiens, UniProt P32245, D189A); test: cAMP AlphaScreen antagonist assay; assay type: cell-based
D189S hMC4R [8] = target: T4, D189S hMC4R; test: cAMP AlphaScreen antagonist assay; assay type: cell-based; conditions: Schild analysis, agonist NDP-MSH
D189A hMC4R [9] = target: T6, D189A hMC4R; test: cAMP AlphaScreen agonist / inverse agonist assay; assay type: cell-based
D189K hMC4R [10] = target: T2, D189K hMC4R
D189N hMC4R [11] = target: T1, D189N hMC4R; test: cAMP AlphaScreen agonist / inverse agonist assay; assay type: cell-based; conditions: D189N hMC4R
D189K hMC4R [12] = target: T2, D189K hMC4R; test: cAMP AlphaScreen agonist / inverse agonist assay; assay type: cell-based
wildtype hMC4R [13] = target: T3, wildtype hMC4R; test: cAMP AlphaScreen antagonist assay; assay type: cell-based; conditions: hMC4R
mMC4R = conditions: cited from earlier work
[14] = target: T7, human melanocortin-4 receptor (hMC4R), wild type, N-terminal FLAG-tagged (human, UniProt P32245 1-332); test: cell-based or functional assay
[15] = target: T7, human melanocortin-4 receptor (hMC4R), …; test: radioligand binding
[16] = target: T8, D189A mutant hMC4R, N-terminal FLAG-tagged (human, UniProt P32245 1-332, D189A); test: radioligand binding
[17] = target: T9, D189N mutant hMC4R, N-terminal FLAG-tagged (human, UniProt P32245 1-332, D189N); test: radioligand binding
[18] = target: T10, D189S mutant hMC4R, N-terminal FLAG-tagged (human, UniProt P32245 1-332, D189S); test: radioligand binding
[19] = target: T11, D189E mutant hMC4R, N-terminal FLAG-tagged (human, UniProt P32245 1-332, D189E); test: radioligand binding
[20] = target: T12, D189K mutant hMC4R, N-terminal FLAG-tagged (human, UniProt P32245 1-332, D189K); test: radioligand binding
[21] = target: T13, D189Q mutant hMC4R, N-terminal FLAG-tagged (human, UniProt P32245 1-332, D189Q); test: radioligand binding
[22] = target: T8, D189A mutant hMC4R, N-terminal …; test: cell-based or functional assay
[23] = target: T9, D189N mutant hMC4R, N-terminal …; test: cell-based or functional assay
[24] = target: T10, D189S mutant hMC4R, N-terminal …; test: cell-based or functional assay
[25] = target: T11, D189E mutant hMC4R, N-terminal …; test: cell-based or functional assay
[26] = target: T12, D189K mutant hMC4R, N-terminal …; test: cell-based or functional assay
[27] = target: T13, D189Q mutant hMC4R, N-terminal …; test: cell-based or functional assay
[28] = target: T7, human melanocortin-4 receptor (hMC4R), …; test: radioligand binding; remark: listed apart in the source

T4 sequence (P32245 whole entry D189S): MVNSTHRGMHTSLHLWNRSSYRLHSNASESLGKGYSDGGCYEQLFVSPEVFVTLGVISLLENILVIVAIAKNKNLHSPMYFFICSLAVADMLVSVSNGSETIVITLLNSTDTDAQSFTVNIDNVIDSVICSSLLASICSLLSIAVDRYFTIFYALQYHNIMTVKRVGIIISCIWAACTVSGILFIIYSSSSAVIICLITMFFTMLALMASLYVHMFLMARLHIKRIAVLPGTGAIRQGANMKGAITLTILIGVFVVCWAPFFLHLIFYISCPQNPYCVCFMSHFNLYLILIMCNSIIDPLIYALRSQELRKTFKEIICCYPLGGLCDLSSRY
T5 sequence (P32245 whole entry D189Q): as the sequence (P32245 whole entry D189S) above, with S189Q counted along it
T7 sequence (P32245 whole entry): as the sequence (P32245 whole entry D189S) above, with S189D counted along it
T3 sequence (P32245 whole entry): as the sequence (P32245 whole entry D189S) above, with S189D counted along it
Chain of D189E hMC4R (P32245 whole entry D189E): as the sequence (P32245 whole entry D189S) above, with S189E counted along it
T2 sequence (P32245 whole entry D189K): as the sequence (P32245 whole entry D189S) above, with S189K counted along it
T10 sequence (P32245 whole entry D189S): as the sequence (P32245 whole entry D189S) above
T13 sequence (P32245 whole entry D189Q): as the sequence (P32245 whole entry D189S) above, with S189Q counted along it
T8 sequence (P32245 whole entry D189A): as the sequence (P32245 whole entry D189S) above, with S189A counted along it
T6 sequence (P32245 whole entry D189A): as the sequence (P32245 whole entry D189S) above, with S189A counted along it
T1 sequence (P32245 whole entry D189N): as the sequence (P32245 whole entry D189S) above, with S189N counted along it
T9 sequence (P32245 whole entry D189N): as the sequence (P32245 whole entry D189S) above, with S189N counted along it
T11 sequence (P32245 whole entry D189E): as the sequence (P32245 whole entry D189S) above, with S189E counted along it
T12 sequence (P32245 whole entry D189K): as the sequence (P32245 whole entry D189S) above, with S189K counted along it

Molecule: C[C@@H]1NC(=O)[C@H](CC(=O)O)NC(=O)[C@H](Cc2ccccc2)NC(=O)[C@H](Cc2ccccc2)NC(=O)[C@H](CCCNC(=N)N)NC(=O)[C@@H]2CCCN2C(=O)[C@H]2CCCN2C(=O)[C@H](Cc2ccccc2)NC1=O [MDE3–119-4c, c[Pro-Arg-Phe-Phe-Asp-Ala-Phe-DPro]]
Kb (D189N hMC4R [1]): 398 nM | EC50 (D189E hMC4R): 3000 nM | Inverse agonist percent decrease from basal activity (D189E hMC4R): −40% | Kb (D189K hMC4R [2]): > 3160 nM | Inverse agonist percent decrease from basal signal (wildtype hMC4R [3]): −35% | Inverse agonist percent decrease from basal activity (D189S hMC4R [4]): −15% | Kb (D189Q hMC4R [5]): 1580 nM | EC50 (D189Q hMC4R [6]): 7000 nM | Inverse agonist percent decrease from basal activity (D189Q hMC4R [6]): −45% | Kb (D189A hMC4R [7]): > 3160 nM

Antagonist pA2 (D189S hMC4R [8]): 8.2±0.2 | Inverse agonist activity (D189A hMC4R [9]): no apparent inverse agonist activity | Inverse agonist percent decrease from basal activity (D189E hMC4R): 4.4±0.1 (−35%) | Inverse agonist percent decrease from basal signal (wildtype hMC4R [3]): 2.4±0.5 (−35%) | Inverse agonist percent decrease from basal signal (wildtype hMC4R [3]; listed as AGRP): 35% | Inverse agonist percent decrease from basal activity (D189S hMC4R [4]): 20±10 (−20%) | Decreased I125-AGRP binding affinity versus wildtype (D189K hMC4R [10]): 10 fold | Inverse agonist percent decrease from basal activity (D189Q hMC4R [6]): 17±5 (−35%) | Inverse agonist percent decrease from basal activity (D189N hMC4R [11]): 30±10 (−10%) | Inverse agonist activity (D189K hMC4R [12]): no apparent inverse agonist activity
Molecule: agouti-related protein (AGRP86–132) [hAGRP(86–132), reference compound]

Decrease in antagonist potency relative to MDE3–119-8c (wildtype hMC4R [13]): 80 fold
Molecule: c[Pro-Arg-Phe-Phe-Phe-Ala-Phe-DPro] [MDE3–119-14c]
Previously decreased antagonist potency (comparator not restated) (mMC4R): 50–100 fold

pA2, antagonism of NDP-MSH (Schild analysis), cAMP AlphaScreen, HEK293 cells [14]: 8.8 | IC50 [15]: 12 nM | IC50 [16]: > 1000 nM | IC50 [17]: 10.5 nM | IC50 [18]: 12.5 nM | IC50 [19]: 6 nM | IC50 [20]: 150 nM | IC50 [21]: 10 nM | pA2, antagonism of NDP-MSH (Schild analysis), cAMP AlphaScreen, HEK293 cells [22]: 6.9 | pA2, antagonism of NDP-MSH (Schild analysis), cAMP AlphaScreen, HEK293 cells [23]: 8.4 | pA2, antagonism of NDP-MSH (Schild analysis), cAMP AlphaScreen, HEK293 cells [24]: 8.2 | pA2, antagonism of NDP-MSH (Schild analysis), cAMP AlphaScreen, HEK293 cells [25]: 8.8 | pA2, antagonism of NDP-MSH (Schild analysis), cAMP AlphaScreen, HEK293 cells [26]: 7.2 | pA2, antagonism of NDP-MSH (Schild analysis), cAMP AlphaScreen, HEK293 cells [27]: 8.1 | IC50 [28]: 12 nM
Molecule: RCVRLHESCLGQQVPCCDPCATCYCRFFNAFCYCRKLGTAMNPCSRT (domain or fragment, UniProt O00253 86-132, looked up) [human agouti-related protein hAGRP(86–132)]
